As a reminder, the AC50 is the midpoint of the concentration-response curve, whichever way the signal moves.

Calls of active or inactive are those of the source.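 Rule for the calls: active = AC50 no more than ten times the top concentration tested, that is within one log above it; inconclusive = flat curve fit with activity between 30% and 70%, or invalid poor fit; inactive = AC50 beyond ten times the top tested dose.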

This test has as its system S. cerevisiae Mot1-301 ts growth rescue, BacTiter-Glo ATP luminescence. In words: restored Mot1-301 yeast growth at 38.5C – whole organism, S. cerevisiae, Mot1-301 ts mutant, luminescence, dose retest, SUMOylation pathway inhibitor project, confirmation (AID 463204).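 Note: growth at restrictive 38.5 degrees C of Mot1-301 OY566 strain; actives raise luminescence by restoring growth of the ts mutant at high temperature.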
Take `O=C(COc1ncnc2c(Cl)cc(Cl)cc12)NCCC1=CCCCC1`: the AC50 was > 42 µM (inactive).

Consider `O=C(Cc1cccs1)Nc1nnc(-c2ccncc2)s1`, for which the AC50 was > 42 µM (inactive). Turning to `C#CCn1c(=NC(=O)CN2C(=O)CCC2=O)sc2cccc(OC)c21`, the AC50 was > 42 µM (inactive). On to `O=C(c1ccc(OC2CCN(CCc3ccccc3)CC2)cc1)N1CCCC1`, for which the AC50 is > 42 µM (inactive).

On to `COc1ccc(-n2nc(C(=O)NCC(=O)N3CCCC3)c3ccccc3c2=O)c(OC)c1`, for which the AC50 is > 42 µM (inactive). Regarding `CC1(C)C2CC=C(/C=N/NC(=S)Nc3cccnc3)C1C2` (stereo not given), the AC50 was > 42 µM (inactive). The result for `Cc1ccc(C)n1-c1ccc(N(C)C)cc1` reads > 42 µM (inactive); that for `O=C(Cn1cnc2ccccc2c1=O)c1ccc(OC(F)F)cc1`, > 42 µM (inactive).

In the case of `CCOC(=O)C1CC(c2ccccc2)=NNC1=O` (stereo not given), the AC50 was > 42 µM (inactive). `Cc1ccc(N=c2ssnc2Cl)cc1`: the AC50 was 3.13 µM.

For `CN(C)c1ccc(/C=C/c2cccc[n+]2[O-])cc1`, the AC50 was > 42 µM (inactive). In the case of `CN(C(=O)CSc1nnc(-c2cccc(F)c2)n1N)C1CCS(=O)(=O)C1` (stereo not given), the AC50 is > 42 µM (inactive). With `C=CCC(NCCCO)c1cccc(OC)c1OC` (stereo not given), the AC50 was > 42 µM (inactive).

As to `COc1ccc(S(=O)(=O)NCC(=O)N(CC(=O)NCC2CCCO2)c2ccccc2C)cc1` (stereo not given), the AC50 is > 42 µM (inactive). Take `COC(=O)C1=C(C)N(Cc2ccccc2)C(=S)N[C@H]1c1cccc(F)c1`: the AC50 was > 42 µM (inactive).

With `O=C(Nc1ccc(Cl)cc1)C1=Cc2ccccc2OC1`, the concentration at half-maximal activity (AC50) is 40.9 µM.

As for `CCOC(=O)c1c(N)sc(C(=O)N2CCCC(C(N)=O)C2)c1C` (stereo not given), the AC50 was > 42 µM (inactive). For `CCOC(=O)c1ccc(CNC(=O)Cn2nnc(-c3ccc(C)cc3)n2)o1`, the AC50 was > 42 µM (inactive). The result for `COc1ccc(C2C(C(=O)Nc3cc(OC)c(OC)c(OC)c3)c3ccccc3C(=O)N2C)cc1` (stereo not given) reads > 42 µM (inactive); that for `CCn1ncc(Br)c1C(=O)Nc1ccc(OC(F)(F)F)cc1`, > 42 µM (inactive).

As for `Oc1c(Br)cc(Br)cc1/C=N/n1c(-c2ccccc2)n[nH]c1=S`, the AC50 was 26.2 µM. The result for `Clc1ccccc1-c1ccc2ncnc(NCc3cccs3)c2c1` reads 37 µM. For the compound `O=C1CC(c2c[nH]c3ccccc23)C(=O)N1c1ccccc1` (stereo not given), the AC50 was > 42 µM (inactive).

Consider `CC(=O)/C=C/n1c(=S)oc2ccccc21`, for which the concentration at half-maximal activity (AC50) was 11.3 µM. In the case of `CCCCOc1ccc(C(=O)Nc2ccc(N3CCN(C)CC3)cc2)cc1`, the AC50 is > 42 µM (inactive). Take `COc1ccc(N2C(=O)CSC23CCCCC3)cc1`: the AC50 is > 42 µM (inactive). In the case of `CCn1nccc1C(=O)Nc1ccccc1OC`, the AC50 is > 42 µM (inactive).

Turning to `CCNC(=S)Nc1ccc(C)c(S(=O)(=O)Nc2ccccc2OC)c1`, the AC50 was > 42 µM (inactive). In the case of `O=C(Nc1cccc(N=Cc2cc(Br)cc(Br)c2O)c1)c1ccco1` it was 2.81 µM. The result for `Cc1cc(C)n(-c2nc(-c3cccc(Cl)c3)cs2)n1` reads > 42 µM (inactive); that for `Cc1[nH]n(-c2ccccc2)c(=O)c1C(C[N+](=O)[O-])c1ccc(Br)cc1` (stereo not given), > 42 µM (inactive). For `CC(C)Cc1nc(N2CCOCC2)c(C#N)c2c1CCC2`, the AC50 was > 42 µM (inactive). In the case of `CCN(CC)c1ccc2c(C)c(CN3CCOCC3)c(=O)oc2c1`, the AC50 was > 42 µM (inactive). In the case of `O=C(COc1ccc([N+](=O)[O-])cc1)Nc1ccc(C(=O)NCc2cccnc2)cc1` it was > 42 µM (inactive).

With `O=C(CCCC(=O)N/N=C/c1ccccc1C(=O)O)N/N=C/c1ccccc1C(=O)O`, the AC50 is > 42 µM (inactive).

As to `O=C(OCCCN=C1NS(=O)(=O)c2ccccc21)c1cccs1`, the AC50 is > 42 µM (inactive).

For the compound `CC(C)Oc1ccc(C2(C#N)CC[N+](C)(C)CC2)cc1`, the AC50 is > 42 µM (inactive). For `Cc1ccc(NC(=S)NC(NC(=O)c2ccccc2C)C(Cl)(Cl)Cl)c(C)c1` (stereo not given), the AC50 is > 42 µM (inactive).

For `CN(C)c1ccc(CN(Cc2ccco2)C(=O)c2ccco2)cc1`, the AC50 is > 42 µM (inactive).

Consider `O=C(CN1c2ccccc2Sc2ccccc21)N/N=C/c1ccc(Cl)cc1Cl`, for which the AC50 is > 21 µM (inactive). For `O=C(Nc1ccc2c(c1)oc1ccccc12)C1CC1`, the AC50 was > 42 µM (inactive). On to `O=C(c1cc(Cl)c(=O)n(Cc2ccc(Cl)cc2)c1)N1CCOCC1`, for which the AC50 was > 42 µM (inactive). `Cc1cc(C)c(OCC(=O)N/N=C/c2ccco2)c(C)c1`: the AC50 was > 42 µM (inactive). `Cn1c(=O)[nH]c(=O)c2c1nc(Sc1ccccc1)n2CCc1ccccc1`: the AC50 was > 42 µM (inactive). Turning to `Cc1ccccc1NC(=O)c1ccccc1NC(=O)c1ccco1`, the AC50 is > 42 µM (inactive).

Take `O=C(CN1C(=O)NC2(CCCC2)C1=O)Nc1nc2ccccc2[nH]1`: the AC50 is > 42 µM (inactive). Consider `O=C(Nc1nccs1)C1CCN(S(=O)(=O)c2ccc(Cl)c(C(F)(F)F)c2)CC1`, for which the AC50 is > 42 µM (inactive).

For `CCOc1ccc(NC(=O)CNc2ccc(C)cc2Cl)cc1`, the AC50 was > 42 µM (inactive). For the compound `O=C(CSc1ccc(Br)cc1)Nc1ccccc1N1CCOCC1`, the AC50 was > 42 µM (inactive). In the case of `N#C/C(=C\c1cn(-c2ccccc2)nc1-c1cccnc1)c1nnc2n1CCCCC2`, the AC50 is > 42 µM (inactive). As for `CN1C(=O)C(=Cc2cn(CC(=O)N3CCCC3)c3ccccc23)C(=O)N(C)C1=O`, the AC50 was > 42 µM (inactive). `CCC(C)[C@H](N)c1nnc(SCC(=O)Nc2cccc(Cl)c2)o1` (stereo not given in full): the AC50 is > 42 µM (inactive). For the compound `C/C(CC(=O)Nc1cccc(Cl)c1Cl)=N\NC(=O)c1ccccc1C`, the AC50 was > 42 µM (inactive). In the case of `CCc1ccc(-c2nc(SCC(=O)N3CCOCC3)n[nH]2)cc1`, the AC50 is > 42 µM (inactive).

Turning to `O=c1c2ccccc2nc(SCc2ccc([N+](=O)[O-])cc2)n1CCCO`, the AC50 was > 42 µM (inactive). The result for `CCCSc1nc(=O)n2cccc(C)c2n1` reads > 42 µM (inactive).

On to `CC(=O)Nc1ccc(C(=O)NCCCOC(C)C)cc1`, for which the AC50 was > 42 µM (inactive). In the case of `O=C(Nc1ccsc1C(=O)O)c1cccc(C(F)(F)F)c1`, the AC50 was > 42 µM (inactive). Regarding `Cc1cc(C)n(C(=O)c2ccccc2[N+](=O)[O-])n1`, the AC50 is > 42 µM (inactive). As to `CC1=C(C(N)=O)C(c2ccccn2)n2nc(SCc3ccccc3Cl)nc2N1` (stereo not given), the AC50 was > 42 µM (inactive). As for `CN(C)c1ccnc2sc3c(NCC(O)CO)ncnc3c12` (stereo not given), the AC50 was > 42 µM (inactive). The result for `COc1ccccc1N(CC(=O)NCC1CCCO1)C(=O)CCC(=O)Nc1cc(C)on1` (stereo not given) reads > 42 µM (inactive); that for `CS(=O)(=O)c1ccc(Cl)c(NC(=O)c2ccc3ccccc3c2)c1`, > 42 µM (inactive). For the compound `CCOC(=O)CCN(c1ccccc1)S(=O)(=O)c1ccc(-c2ccc(=O)[nH]n2)s1`, the AC50 was > 42 µM (inactive). With `CC1(C)C=C(c2ccc(O)cc2)CC(C)(C)N1`, the AC50 was > 42 µM (inactive).

Source of the values: PubChem BioAssay AID463204 (Broad Institute, 2010).
